According to patent US9457033B2, “Steroid alkaloids and uses thereof as antimicrobial agents against electron transport-deficient microbes and as potentiators for antimicrobial agents against pathogenic bacteria” (priority 2011, dated 2016):
In brackets after ≈: the same amount, converted by molar mass. Like-named read-outs stand apart in the source and are kept apart here.

Experiments:
S. aureus SCV CF1D-S = assay: MIC, microdilution in BHI 48 h; format: cell-based, Staphylococcus aureus; details: Staphylococcus aureus, SCVCF1DS
S. aureus CF35A-L = assay: MIC, microdilution in CAMHB 24 h; format: cell-based, Staphylococcus aureus; details: Staphylococcus aureus; CF35A-L; Human (CF lungs); MRSA; read-out: MIC
S. aureus ATCC BAA-41 = assay: MIC, microdilution in CAMHB 24 h; format: cell-based, Staphylococcus aureus; details: Staphylococcus aureus, ATCC BAA-41 / MRSA; ATCC BAA-41; Human (HA); MRSA; read-out: MIC
[1] = system: S. aureus CF1A-L (normal strain); assay: MIC, microdilution in BHI 48 h; format: cell-based, Staphylococcus aureus; details: Staphylococcus aureus; CF1A-L, normal strain; read-out: MIC
S. aureus MA078038 = assay: MIC, microdilution in CAMHB 24 h; format: cell-based, Staphylococcus aureus; details: Staphylococcus aureus; MA078038; Human (CA); MRSA; read-out: MIC
S. aureus Sa220c = assay: MIC, microdilution in CAMHB 24 h; format: cell-based, Staphylococcus aureus; details: Staphylococcus aureus; Sa220c; Human (SSTI); MRSA; read-out: MIC
S. aureus CF2A-L = assay: MIC, microdilution in CAMHB 24 h; format: cell-based; details: Staphylococcus aureus, CF2AL; CF2A-L; Human (CF lungs); read-out: MIC
S. aureus CF4B-L = assay: MIC, microdilution in CAMHB 24 h; format: cell-based, Staphylococcus aureus; details: Staphylococcus aureus, CF4BL; CF4B-L; Human (CF lungs); read-out: MIC
S. aureus Newman = assay: MIC, microdilution in CAMHB 24 h; format: cell-based, Staphylococcus aureus; details: Staphylococcus aureus; Newman; Human (Osteo); read-out: MIC
[2] = system: S. aureus Newbould (normal strain); assay: MIC, microdilution in BHI 48 h; format: cell-based, Staphylococcus aureus; details: Staphylococcus aureus; Newbould, normal strain; read-out: MIC
S. aureus SCV CF07-S = assay: MIC, microdilution in BHI 48 h (Examples 1, 3); format: cell-based, Staphylococcus aureus
S. aureus CF1A-L = assay: MIC, microdilution in CAMHB 24 h; format: cell-based, Staphylococcus aureus; details: Staphylococcus aureus, CF1AL; CF1A-L; Human (CF lungs); read-out: MIC
S. aureus SHY97-3906 = assay: MIC, microdilution in CAMHB 24 h; format: cell-based, Staphylococcus aureus; details: Staphylococcus aureus, SHY973906; SHY97-3906; Cow (mastitis); read-out: MIC
S. aureus 8325-4 = assay: MIC, microdilution in CAMHB 24 h; format: cell-based, Staphylococcus aureus; details: Staphylococcus aureus, 83254; 8325-4; Laboratory strain; read-out: MIC
[3] = system: S. aureus SCV NewbouldΔhemB; assay: MIC, microdilution in BHI 48 h; format: cell-based, Staphylococcus aureus; details: Staphylococcus aureus
S. aureus Sa228c = assay: MIC, microdilution in CAMHB 24 h; format: cell-based, Staphylococcus aureus; details: Staphylococcus aureus, MRSA
[4] = system: S. aureus CF07-L (normal strain); assay: MIC, microdilution in BHI 48 h (Examples 1, 3); format: cell-based, Staphylococcus aureus
S. aureus MRSA COL = assay: MIC, microdilution in CAMHB 24 h; format: cell-based, Staphylococcus aureus; details: Staphylococcus aureus; MRSA COL; Human (SSTI); read-out: MIC
S. aureus CF9A-L = assay: MIC, microdilution in CAMHB 24 h; format: cell-based, Staphylococcus aureus; details: Staphylococcus aureus; CF9A-L; Human (CF lungs); MRSA; read-out: MIC
S. aureus CF07-L = assay: MIC, microdilution in CAMHB 24 h; format: cell-based, Staphylococcus aureus; details: Staphylococcus aureus, CF07L; CF07-L; Human (CF lungs); read-out: MIC
S. aureus Mu50 = assay: MIC, microdilution in CAMHB 24 h; format: cell-based, Staphylococcus aureus; details: Staphylococcus aureus; Mu50; Human (SSTI); MRSA, VISA; read-out: MIC
S. aureus CF6B-L = assay: MIC, microdilution in CAMHB 24 h; format: cell-based, Staphylococcus aureus; details: Staphylococcus aureus, CF6BL; CF6B-L; Human (CF lungs); read-out: MIC
S. aureus Newbould = assay: MIC, microdilution in CAMHB 24 h; format: cell-based, Staphylococcus aureus; details: Staphylococcus aureus; Newbould; Cow (mastitis); read-out: MIC
S. aureus CF8E-L = assay: MIC, microdilution in CAMHB 24 h; format: cell-based, Staphylococcus aureus; details: Staphylococcus aureus, CF8EL; CF8E-L; Human (CF lungs); read-out: MIC
S. aureus N315 = assay: microbe, parasite or virus in culture; format: cell-based, Staphylococcus aureus; details: Staphylococcus aureus, MRSA
S. aureus ATCC 43300 = assay: MIC, microdilution in CAMHB 24 h; format: cell-based, Staphylococcus aureus; details: Staphylococcus aureus, ATCC 43300 / MRSA; ATCC 43300; Human (HA); MRSA; read-out: MIC
S. aureus CF7A-L = assay: MIC, microdilution in CAMHB 24 h; format: cell-based, Staphylococcus aureus; details: Staphylococcus aureus; CF7A-L; Human (CF lungs); MRSA; read-out: MIC

O=C(O)c1cn(C2CC2)c2cc(N3CCNCC3)c(F)cc2c1=O [Ciprofloxacin, ciprofloxacin]
MIC (S. aureus SCV CF1D-S): 0.12 µg/mL (≈ 0.362 µM)
MIC (S. aureus CF35A-L): > 64 µg/mL
MIC (S. aureus ATCC BAA-41): > 64 µg/mL
MIC [1]: 0.5 µg/mL (≈ 1.51 µM)
MIC (S. aureus MA078038): 16 µg/mL (≈ 48.3 µM)
MIC (S. aureus Sa220c): 32 µg/mL (≈ 96.6 µM)
MIC (S. aureus CF2A-L): 0.25 µg/mL (≈ 0.754 µM)
MIC (S. aureus CF4B-L): 0.25 to 0.5 µg/mL (≈ 0.754 to 1.51 µM)
MIC (S. aureus Newman): 0.25 µg/mL (≈ 0.754 µM)
MIC [2]: 0.25 to 0.5 µg/mL (≈ 0.754 to 1.51 µM)
MIC (S. aureus SCV CF07-S; CF07-S + HQNO at 20 μg/ml): 0.12 µg/mL
MIC (S. aureus SCV CF07-S; CF07-S, without HQNO): 0.12 µg/mL (≈ 0.362 µM)
MIC (S. aureus SCV CF07-S; Staphylococcus aureus, SCVCF07S): 0.12 µg/mL (≈ 0.362 µM)
MIC (S. aureus CF1A-L): 0.5 to 1 µg/mL (≈ 1.51 to 3.02 µM)
MIC (S. aureus SHY97-3906): 0.25 µg/mL (≈ 0.754 µM)
MIC (S. aureus 8325-4): 0.25 to 0.5 µg/mL (≈ 0.754 to 1.51 µM)
MIC [3]: 0.12 to 0.25 µg/mL (≈ 0.362 to 0.754 µM)
MIC (S. aureus Sa228c): > 64 µg/mL
MIC ([4]; CF07-L + HQNO at 20 μg/ml): 0.25 µg/mL
MIC ([4]; CF07-L, without HQNO): 0.5 µg/mL (≈ 1.51 µM)
MIC ([4]; Staphylococcus aureus, CF07-L, normal strain, read-out: MIC): 0.5 µg/mL (≈ 1.51 µM)
MIC (S. aureus MRSA COL): 0.5 µg/mL (≈ 1.51 µM)
MIC (S. aureus CF9A-L): > 64 µg/mL
MIC (S. aureus CF07-L): 0.5 µg/mL (≈ 1.51 µM)
MIC (S. aureus Mu50): 32 to 64 µg/mL (≈ 96.6 to 193 µM)
MIC (S. aureus CF6B-L): > 64 µg/mL
MIC (S. aureus Newbould): 0.25 µg/mL (≈ 0.754 µM)
MIC (S. aureus CF8E-L): 1 µg/mL (≈ 3.02 µM)
MIC (S. aureus N315): 0.25 µg/mL (≈ 0.754 µM)
MIC (S. aureus ATCC 43300): 0.5 µg/mL (≈ 1.51 µM)
MIC (S. aureus CF7A-L): > 64 µg/mL
